Experimental data published in patent US20090105259A1, “Acyclic 1,4-Diamines and Uses Thereof” (priority 2005, published 2009).

Key:
TRPV4 channel receptors [1] = biological target: T1, TRPV4 channel receptors (Bos taurus, UniProt A0A8F4X677); assay: Ca2+ influx through TRPV4 channel receptors, Fura-2 fluorescence on FlexStation, bovine articular chondrocytes; assay type: cell-based; settings: Fura-2, FlexStation
T1 construct: obtained using this method in bovine articular chondrocytes; endogenous in cells; host or cells: bovine articular chondrocytes
T1 sequence (A0A8F4X677 1-871): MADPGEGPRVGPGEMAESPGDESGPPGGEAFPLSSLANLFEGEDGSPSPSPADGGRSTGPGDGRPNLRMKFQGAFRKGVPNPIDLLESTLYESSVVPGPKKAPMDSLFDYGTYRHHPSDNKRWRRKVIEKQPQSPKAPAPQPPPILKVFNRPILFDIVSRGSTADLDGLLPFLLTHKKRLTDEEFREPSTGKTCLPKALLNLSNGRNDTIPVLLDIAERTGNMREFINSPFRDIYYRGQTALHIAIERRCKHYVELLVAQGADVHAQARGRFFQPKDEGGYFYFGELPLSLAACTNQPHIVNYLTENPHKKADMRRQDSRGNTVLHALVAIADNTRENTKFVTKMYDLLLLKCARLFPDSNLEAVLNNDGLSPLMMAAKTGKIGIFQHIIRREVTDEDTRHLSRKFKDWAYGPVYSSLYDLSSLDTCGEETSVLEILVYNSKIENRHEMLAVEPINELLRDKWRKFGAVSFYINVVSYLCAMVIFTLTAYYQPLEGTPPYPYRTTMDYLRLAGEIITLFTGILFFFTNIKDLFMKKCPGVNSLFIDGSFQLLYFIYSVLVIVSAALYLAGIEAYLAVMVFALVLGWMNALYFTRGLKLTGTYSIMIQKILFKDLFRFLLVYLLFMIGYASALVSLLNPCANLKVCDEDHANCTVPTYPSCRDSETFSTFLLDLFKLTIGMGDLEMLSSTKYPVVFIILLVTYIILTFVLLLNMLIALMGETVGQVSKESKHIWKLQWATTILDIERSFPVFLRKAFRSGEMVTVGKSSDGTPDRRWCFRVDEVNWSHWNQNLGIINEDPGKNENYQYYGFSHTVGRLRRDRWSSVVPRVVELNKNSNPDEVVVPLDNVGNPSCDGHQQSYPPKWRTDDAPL
Description: (§1) Ca^2+ influx mediated through TRPV4 channel receptors can be measured using articular chondrocytes from such species as, but not limited to, human, rat, canine, rabbit, monkey, and bovine, using standard techniques in the art such as, but not limited to, Fura-2 (Invitrogen/Molecular Probes, Eugene, Oreg.) fluorescence using a FlexStation (manufactured by Molecular Devices, Sunnyvale, Calif.). Table 1 lists biological data for several representative compounds obtained using this method in bovine articular chondrocytes.
(§2) All exemplary compounds of the present invention were assessed using at least one of the biological assays presented above. Compounds presented in the Examples had EC50 values of about 0.01 μM to 10 μM as measured by Flex Station using bovine and/or human articular chondrocytes.

TRPV4 channel receptors [2] = biological target: T2, TRPV4 channel receptors (Homo sapiens, UniProt Q9HBA0); assay: Ca2+ influx through TRPV4 channel receptors, Fura-2 fluorescence on FlexStation, human articular chondrocytes; assay type: cell-based; settings: Fura-2, FlexStation
T2 construct: obtained using this method in human articular chondrocytes; endogenous in cells; host or cells: human articular chondrocytes
T2 sequence (Q9HBA0 whole entry): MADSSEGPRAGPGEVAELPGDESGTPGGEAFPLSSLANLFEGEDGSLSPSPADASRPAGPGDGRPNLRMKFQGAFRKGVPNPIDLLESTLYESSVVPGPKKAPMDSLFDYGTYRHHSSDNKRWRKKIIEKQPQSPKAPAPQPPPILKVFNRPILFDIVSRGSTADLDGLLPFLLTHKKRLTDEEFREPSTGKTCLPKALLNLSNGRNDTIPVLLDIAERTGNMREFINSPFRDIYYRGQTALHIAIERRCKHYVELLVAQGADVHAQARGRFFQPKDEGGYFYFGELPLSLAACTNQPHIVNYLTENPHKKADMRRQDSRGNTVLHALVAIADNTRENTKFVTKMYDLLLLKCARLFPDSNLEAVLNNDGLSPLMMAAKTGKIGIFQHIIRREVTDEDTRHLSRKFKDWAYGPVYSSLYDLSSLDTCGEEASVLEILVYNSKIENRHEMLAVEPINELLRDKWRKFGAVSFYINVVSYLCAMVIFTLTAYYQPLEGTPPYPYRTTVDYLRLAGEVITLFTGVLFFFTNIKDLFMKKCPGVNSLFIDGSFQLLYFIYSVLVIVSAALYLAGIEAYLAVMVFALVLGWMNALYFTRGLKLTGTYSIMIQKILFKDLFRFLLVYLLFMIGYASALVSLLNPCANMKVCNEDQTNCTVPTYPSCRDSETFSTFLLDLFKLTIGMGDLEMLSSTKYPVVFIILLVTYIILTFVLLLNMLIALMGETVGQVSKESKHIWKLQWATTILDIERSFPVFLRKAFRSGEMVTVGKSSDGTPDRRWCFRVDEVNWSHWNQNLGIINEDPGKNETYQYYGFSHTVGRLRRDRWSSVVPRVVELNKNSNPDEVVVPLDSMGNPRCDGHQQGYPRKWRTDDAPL
Description: as §1
Table 2 lists biological data for several representative compounds obtained using this method in human articular chondrocytes.
as §2

SMILES	EC50 (TRPV4 channel receptors [1])	EC50 (TRPV4 channel receptors [2])
CC(C)C[C@H](NC(=O)c1cc2ccccc2s1)C(=O)NCCCCNS(=O)(=O)c1ccc(Br)cc1Cl [Example 3, N-((1S)-1-{[(4-{[(4-Bromo-2-chlorophenyl)sulfonyl]amino}butyl)amino]carbonyl}-3-methylbutyl)-1-benzothiophene-2-carboxamide]	30 to 60 nM	30 to 90 nM
Cc1c(C(=O)N[C@@H](CC(C)C)C(=O)NCCCCNS(=O)(=O)c2ccc(Cl)cc2Cl)oc2cccnc12 [Example 6, N-((1S)-1-{[(4-{[(2,4-Dichlorophenyl)sulfonyl]amino}butyl)amino]carbonyl}-3-methylbutyl)-3-methylfuro[3,2-b]pyridine-2-carboxamide]	–	100 to 1000 nM
CC(C)C[C@H](NC(=O)c1nc2ccccc2s1)C(=O)NCCCCNS(=O)(=O)c1ccc(F)cc1Cl [Example 50, N-((1S)-1-{[(4-{[(2-Chloro-4-fluorophenyl)sulfonyl]amino}butyl)amino]carbonyl}-3-methylbutyl)-1,3-benzothiazole-2-carboxamide]	–	1000 to 10000 nM
CC(C)C[C@H](NC(=O)c1cc2ccccc2s1)C(=O)NCCCCNS(=O)(=O)c1ccc(F)cc1Cl [Example 5, N-((1S)-1-{[(4-{[(2-Chloro-4-fluorophenyl)sulfonyl]amino}butyl)amino]carbonyl}-3-methylbutyl)-1-benzothiophene-2-carboxamide]	70 to 100 nM	–
